Assay results reported in patent publication US20040115284A1, “Use of gamma-GT inhibitors for the treatment of degenerative diseases” (priority 2001, published 2004).
Marks after values point to notes of the source that are not given here.

What was measured:
Glutathione Peroxidase = assay: Glutathione peroxidase activity in Mpv17 −/− cells (LUSVX) grown in presence of MnTBAP or acivicin; assay type: cell-based, mouse
Source text: (§1) Kidneys from background mice (CFW×Balb/c) and transgenic homozygous Mpv17−/− mice (H. Weiher, T. Noda, D. A. Gray, A. H. Sharpe and R. Jaenisch (1990), Cell, 62, pp. 425434) were obtained at an age of 7 to 9 months and frozen in liquid nitrogen. LUSVX cells (SV40 immortalised fibroblasts from the lungs of Mpv17−/− mice), and NIX1 5 cells (Mpv+/+ cells derived from LUSVX cells by stable transfection of an expression construct for the human Mpv17 cDNA) (A. Reuter. A. Nestl, R. M. Zwacka, J. Tuckermann, R. Waldherr, E. M. Wagner, M. Hoyhtya, A. M. Meyer zum Gottesberge, P. Angel and H. Weiher (1998), Molecular Biology of the Cell, 9, pp. 1675-1682) were grown in DMEM including 10% fetal calf serum (FCS) and 1 μg/ml puromycin (NIX15 cultures) at 6.5% CO2 Cells were harvested by trypsinisation and each 5×10^6 cells were washed in 1.5 ml of phosphate-buffered saline (PBS) before freezing the pellet in liquid nitrogen. Where indicated, Mn(III)tetrakis(4-benzoic acid)porphyrin (MnTBAP), final concentration 10 μM (Y. Noda, M. Kohno, A. Mori and L. Packer (1999), Methods in Enzymology, 299, pp. 28-34) (Calbiochem, Schwalbach, FRG), or the γ-GT inhibitor acivicin (AT-125), final concentration 50 μM (Sigma, Deisenhofen, FRG) were added in DMEM/10% FCS 18 h before harvesting the cells. Kidneys and cells were stored frozen at −80° C.
Cell fractions were prepared by differential centrifugation from 20% tissue and cell homogenates (w/v) in 10 mM potassium phosphate buffer, pH 7.0, containing 0.25 M sucrose, 150 mM potassium chloride, 1 mM EDTA, 2 mM dithiothreitol, and 50 μM phenylmethylsulfonyl fluoride. Enzyme activities were determined at 25° C.: catalase in the 25,000×g (10 min) pellet H. E. Aebi (1983), In Methods of Enzymatic Analysis (ed. H. U. Bergmeyer), Verlag Chemie, Weinheim, pp. 273-276); glutathione peroxidase (GPx) (R. A. Lawrence and R. F. Burk (1976), Biochemical Biophysical Research Communications, 71, pp. 952-958), GSSG reductase (Goldberg, D. M. S. R. F. (1983) In Methods of Enzymatic Analysis (ed. H. U. Bergmeyer) Verlag Chemie, Weinheim, pp. 258-265), glutathione transferase (GST) with 1-chloro-2,4-dinitrobenzene (CDNB) W. H. Habig, M. J. Pabst and W. B. Jakoby (1974), Journal Biological Chemistry, 249, pp. 7130-7139, and superoxide dismutase (SOD) (S. Marklund and G. Marklund (1974), European Journal of Biochemistry, 47, pp. 469-474) in the 105,000×g (45 min) supernatant; γ-glutamyl transpeptidase (γ-GT) ) (S. Marklund and G. Marklund (1974), European Journal of Biochemistry, 47, pp. 469-474) in the resuspended 105,000×g pellet containing 1% Triton X-100. Protein was measured by the method of Bradford using bovine serum albumin as standard (M. M. Bradford (1976), Analytical Biochemistry, 72, pp. 248-254).

[1] = molecular target: T1, γ-Glutamyl Transpeptidase (Mus musculus, UniProt Q60928); assay: γ-glutamyl transpeptidase activity in Mpv17 −/− cells (LUSVX) grown in presence of MnTBAP or acivicin; assay type: cell-based
T1 construct: in the resuspended 105,000×g pellet containing 1% Triton X-100; endogenous in cells; host or cells: LUSVX cells (SV40-immortalised lung fibroblasts from Mpv17−/− mice)
T1 sequence (Q60928 1-379 limits assumed): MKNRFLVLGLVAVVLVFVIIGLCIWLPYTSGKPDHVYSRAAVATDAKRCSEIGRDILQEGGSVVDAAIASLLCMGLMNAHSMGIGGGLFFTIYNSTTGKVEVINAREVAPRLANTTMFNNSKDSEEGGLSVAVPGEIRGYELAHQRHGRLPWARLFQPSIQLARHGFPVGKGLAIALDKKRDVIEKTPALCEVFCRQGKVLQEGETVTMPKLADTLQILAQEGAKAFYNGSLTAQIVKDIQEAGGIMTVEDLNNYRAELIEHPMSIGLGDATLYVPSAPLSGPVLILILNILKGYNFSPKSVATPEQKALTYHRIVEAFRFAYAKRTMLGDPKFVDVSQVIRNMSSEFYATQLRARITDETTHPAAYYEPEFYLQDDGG
T1 sequence (Q60928 380-568 limits assumed): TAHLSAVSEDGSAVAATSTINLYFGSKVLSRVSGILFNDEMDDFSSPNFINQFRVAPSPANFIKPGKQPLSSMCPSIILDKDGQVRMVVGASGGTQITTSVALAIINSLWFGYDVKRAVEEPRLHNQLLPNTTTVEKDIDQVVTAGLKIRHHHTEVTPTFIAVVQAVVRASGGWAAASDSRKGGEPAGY
Source text: as §1
Cell fractions were prepared by differential centrifugation from 20% tissue and cell homogenates (w/v) in 10 mM potassium phosphate buffer, pH 7.0, containing 0.25 M sucrose, 150 mM potassium chloride, 1 mM EDTA, 2 mM dithiothreitol, and 50 μM phenylmethylsulfonyl fluoride. […] Protein was measured by the method of Bradford using bovine serum albumin as standard (M. M. Bradford (1976), Analytical Biochemistry, 72, pp. 248-254).

γ-GT = molecular target: T2, γ-GT (Rattus norvegicus, UniProt P07314); conditions: short-term ischemia of rat kidney; Cutrin et al. 2000; cited from earlier work
T2 construct: oxidation damage during short-term ischemia of rat kidney
T2 sequence (P07314 1-379 limits assumed): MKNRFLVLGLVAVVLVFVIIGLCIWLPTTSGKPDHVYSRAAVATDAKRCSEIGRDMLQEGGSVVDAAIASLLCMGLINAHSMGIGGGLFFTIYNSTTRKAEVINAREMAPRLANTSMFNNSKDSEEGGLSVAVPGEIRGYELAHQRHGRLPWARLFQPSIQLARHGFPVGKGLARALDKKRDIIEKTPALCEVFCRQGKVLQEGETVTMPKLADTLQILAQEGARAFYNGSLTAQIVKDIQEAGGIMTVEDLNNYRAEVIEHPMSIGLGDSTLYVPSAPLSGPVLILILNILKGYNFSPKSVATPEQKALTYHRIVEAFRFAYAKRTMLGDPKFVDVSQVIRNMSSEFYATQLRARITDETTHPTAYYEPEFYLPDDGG
T2 sequence (P07314 380-568 limits assumed): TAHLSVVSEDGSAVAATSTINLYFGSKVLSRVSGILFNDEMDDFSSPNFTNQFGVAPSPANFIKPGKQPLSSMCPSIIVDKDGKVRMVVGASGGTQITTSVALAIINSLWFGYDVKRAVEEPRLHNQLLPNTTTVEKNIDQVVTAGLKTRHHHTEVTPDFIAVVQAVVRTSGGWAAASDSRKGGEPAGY

SOD mRNA = SOD mRNA levels by quantitative RT-PCR in Mpv17−/− cells; assay type: cell-based, mouse; conditions: Mpv17−/− cells with acivicin (γ-GT inhibition), FIG. 2B; β-actin reference
Source text: (§2) Kidneys from background mice (CFW×Balb/c) and transgenic homozygous Mpv17-/- mice ([…]. Noda, D. A. Gray, A. H. Sharpe and R. Jaenisch (1990), Cell, 62, pp. 425434) were obtained at an age of 7 to 9 months and frozen in liquid nitrogen. LUSVX cells (SV40 immortalised fibroblasts from the lungs of Mpv17-/- mice), and NIX1 5 cells (Mpv+/+ cells derived from LUSVX cells by stable transfection of an expression construct for the human Mpv17 cDNA) (A. Reuter. […]. Tuckermann, […]. Wagner, […]. Meyer zum Gottesberge, P. Angel and […] (1998), Molecular Biology of the Cell, 9, pp. 1675-1682) were grown in DMEM including 10% fetal calf serum (FCS) and 1 μg/ml puromycin (NIX15 cultures) at 6.5% CO2 Cells were harvested by trypsinisation and each 5×10^6 cells were washed in 1.5 ml of phosphate-buffered saline (PBS) before freezing the pellet in liquid nitrogen. […] Noda, M. Kohno, A. Mori and L. […] Kidneys and cells were stored frozen at -80° C. mRNA levels were also measured. In particular, levels of mRNA were determined by quantitative RT-PCR. […] Amplified mRNA was separated on 1.5% agarose gels in Tris borate buffer (F. M. Ausubel (1995) Short protocols in molecular biology: a compendium of methods from current protocols in molecular biology. Wiley Press, New York) visualized with vista green (Amersham, Freiburg, FRG) and quantified with a FLA2000 Imager (FUJI).

pGPx mRNA = pGPx mRNA level by quantitative RT-PCR in Mpv17−/− cells; assay type: cell-based, mouse; conditions: Mpv17−/− cells with acivicin (γ-GT inhibition), FIG. 2B; β-actin reference
Source text: as §2

[2] = Mpv17−/− cells (LUSVX) grown in the presence of MnTBAP
[3] = LUSVX cells, MnTBAP 10 μM or acivicin 50 μM added 18 h before harvesting, means ± SEM (n = 3)

| SMILES | Glutathione Peroxidase activity, % of controls (Glutathione Peroxidase; LUSVX cells, MnTBAP 10 μM or acivicin 50 μM, 18 h, relative to untreated LUSVX) | change of GPx activity (in words) (Glutathione Peroxidase; [2]) | γ-Glutamyl Transpeptidase activity [1, 3] | γ-Glutamyl Transpeptidase activity, % of controls ([1]; LUSVX cells, MnTBAP 10 μM, 18 h, relative to untreated LUSVX) | change of γ-GT activity (in words) [1, 2] | oxidation damage caused by γ-GT upregulation (γ-GT) | Glutathione Peroxidase activity (Glutathione Peroxidase; [3]) | increase of GPx activity (Glutathione Peroxidase; Mpv17−/− cells grown in the presence of acivicin) | activity at 50 µM (Glutathione Peroxidase; Mus musculus, LUSVX cells, MnTBAP 10 μM or acivicin 50 μM, 18 h, relative to untreated LUSVX, read-out: Glutathione Peroxidase activity, % of controls) | SOD mRNA levels (SOD mRNA) | pGPx mRNA level (pGPx mRNA) |
| --- | --- | --- | --- | --- | --- | --- | --- | --- | --- | --- | --- |
| O=C(O)c1ccc(-c2c3nc(c(-c4ccc(C(=O)O)cc4)c4ccc([n-]4)c(-c4ccc(C(=O)O)cc4)c4nc(c(-c5ccc(C(=O)O)cc5)c5ccc2[n-]5)C=C4)C=C3)cc1.[Mn+3] [MnTBAP, Mn(III)tetrakis(4-benzoic acid)porphyrin] | (104%)^a) | Neither γ-GT nor GPx activities were changed significantly | 0.94 ± 0.03 nmol/min per mg of protein | (95%) | Neither γ-GT nor GPx activities were changed significantly |  |  |  |  |  |  |
| N[C@H](C(=O)O)[C@@H]1CC(Cl)=NO1 [acivicin] |  |  |  |  |  | inhibitable | 53.5 ± 2.0 nmol/min per mg of protein | about 1.6 fold | 162% | significant increase | significant increase |
